Like-named read-outs stand apart in the source and are kept apart here.

We go through one molecule from patent US10265327B2, “V1A antagonists to treat phase shift sleep disorders” (Hoffmann-La Roche Inc., priority 2013, dated 2019).

The target in the test is T1, human V1a receptor (hV1a) (Homo sapiens, UniProt P37288).
T1 construct: expressed in transfected cells; host or cells: HEK cells, transient transfection; membrane preparation
In words: Radioligand binding assay (3H-AVP, SPA), human V1a. The note with it: 1 nM 3H-AVP. How it is done:
The test compound was initially dissolved in DMSO at a concentration of 10 mM. Subsequent dilutions were made in assay buffer with a maximum final concentration of 0.2% DMSO.
Recombinant vasopressin V1a (human: hV1a; mouse: mV1a), V1b (human: hV1b) were independently expressed in human embryonic kidney (HEK) cells using transient transfection. The cell membranes expressing the various receptors were prepared by homogenizing (using Polytron homogenizer) the cell culture pellet in lysis buffer (50 mM HEPES, 1 mM EDTA, 10 mM MgCl2, pH 7.4 with protease inhibitors), then centrifuging the resulting suspension at 500 g for 20 min at 4° C. The supernatant was subsequently re-centrifuged at 43,000 g for 1 hour at 4° C. […] The concentration of protein was determined, and the membranes were aliquoted and stored at −80° C. until further use.
All radioligand binding assays were carried out in 96-well plates in the presence of 1 nM ^3H-AVP (vasopressin) radioligand, and 10 concentrations of test compound (ranging from 27 μM-1 nM or 2.7 μM-0.1 nM for hV1a binding). […] Filtration assays were terminated by rapid filtration under vacuum through GF/C filters, presoaked for 5 min with buffer B containing Tris 50 mM, MgCl2 5 mM, 0.1% BSA (pH 7.4), followed by 5×0.4 ml washes of ice-cold buffer B. For both SPA and filtration plates, bound ligand was determined using a Packard Topcount scintillation counter. […]

T1 sequence (P37288 whole entry): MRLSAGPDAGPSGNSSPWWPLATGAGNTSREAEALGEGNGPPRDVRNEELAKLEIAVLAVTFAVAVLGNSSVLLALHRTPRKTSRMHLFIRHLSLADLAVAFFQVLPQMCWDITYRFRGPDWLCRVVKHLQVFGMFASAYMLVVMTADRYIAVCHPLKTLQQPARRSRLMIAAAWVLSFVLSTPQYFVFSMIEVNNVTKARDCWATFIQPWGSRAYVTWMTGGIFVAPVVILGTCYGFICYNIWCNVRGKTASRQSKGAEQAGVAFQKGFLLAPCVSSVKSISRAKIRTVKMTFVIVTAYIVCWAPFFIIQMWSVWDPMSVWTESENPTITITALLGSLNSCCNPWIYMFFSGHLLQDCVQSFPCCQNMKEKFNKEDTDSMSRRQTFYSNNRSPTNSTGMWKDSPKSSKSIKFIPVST

With `CN1Cc2cc(Cl)ccc2-n2c(nnc2[C@H]2CC[C@H](Oc3ccccn3)CC2)C1` [Example 1, trans-8-chloro-5-methyl-1-(4-pyridin-2-yloxycyclohexyl)-4,6-dihydro-[1,2,4]triazolo[4,3-a][1,4]benzodiazepine], the Ki (Ki ± SEM (n), read-out: Ki V1a Human) was determined as 700 ± 100 pM and the Ki (pKi ± SEM (n), read-out: pKi V1a Human (converted)) is 776 pM.
